Laboratory results as given in patent US10004785B2, “LKKTET and/or LKKTNT peptide compositions which are lyophilized or in a form capable of being lyophilized” (RegeneRX Biopharmaceuticals, Inc., priority 2005, dated 2018).

Tests used:
[1] = tested on: Human corneal epithelial cells; assay: colorimetric BrdU incorporation assay (cell proliferation); assay type: cell-based; settings: 1 mcg/ml Tβ4, 3 and 24 hour time points
Description: (§1) Human corneal epithelial cells at approximately 80% confluence were treated with 0%, 0.001%, 0.01%, or 0.1% BAK for 15 minutes. After 3 and 24 hours of recovery in culture medium, cell proliferation was measured using a colorimetric BrdU incorporation assay. Apoptosis was measured using a colorimetric annexin-based cell death assay. […] To further assess the ability of Tb4 to prevent apoptosis, corneal epithelial cells were treated with 0.01% BAK±Tβ4 over a 5 day time course.

[2] = tested on: Human corneal epithelial cells; assay: colorimetric annexin-based cell death assay (apoptosis); settings: 1 mcg/ml Tβ4, 3 and 24 hour time points
Description: as §1

Thymosin beta 4 (SDKPDMAEIEKFDKSKLKKTETQEKNPLPSKETIEQEKQAGES; Thymosin beta-4; UniProt P62328 2-44, looked up) [Tβ4, a 43 amino acid, 4.9 kDa ubiquitous polypeptide originally isolated from the thymus]
cell proliferation of BAK-treated corneal epithelial cells [1]: not promoted
apoptosis of BAK-treated corneal epithelial cells [2]: not inhibited
